These results are taken from patent US10881637B2 (priority 2015, dated 2021).

Data set [1] has as its system subject with bipolar disorder. The data set can be described thus: Salvia divinorum by combustion and inhalation in one subject with bipolar disorder (Example 1). To be noted: for mania on traditional antidepressants: same subject, very small, sub-therapeutic doses. Type of data set: in vivo, human. The source says: This method was repeated approximately 20 times with consistent results.

Data set [2] deals with 50 other receptors, transporters and ion channels including mu- and delta-opioid receptors. As to conditions: cited from earlier work.
Another data set addresses D2 receptor (Homo sapiens, UniProt P14416). As to conditions: cited from earlier work.
For a further data set, the target named is 5HTP2A receptors (Homo sapiens, UniProt P28223). As to conditions: cited from earlier work.
Chain of 5HTP2A receptors (P28223 whole entry): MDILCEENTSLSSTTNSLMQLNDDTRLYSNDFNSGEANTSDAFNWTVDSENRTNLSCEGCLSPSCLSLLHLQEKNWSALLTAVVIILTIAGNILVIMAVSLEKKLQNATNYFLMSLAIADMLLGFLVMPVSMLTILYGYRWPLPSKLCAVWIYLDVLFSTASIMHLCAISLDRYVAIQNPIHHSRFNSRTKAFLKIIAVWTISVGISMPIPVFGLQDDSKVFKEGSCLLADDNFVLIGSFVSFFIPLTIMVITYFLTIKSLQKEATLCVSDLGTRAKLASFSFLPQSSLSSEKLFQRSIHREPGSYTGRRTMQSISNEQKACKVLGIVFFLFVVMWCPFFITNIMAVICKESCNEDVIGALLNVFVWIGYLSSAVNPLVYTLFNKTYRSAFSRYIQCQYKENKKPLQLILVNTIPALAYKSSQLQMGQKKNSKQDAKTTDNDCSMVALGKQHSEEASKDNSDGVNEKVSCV
The conditions of data set [3]: cited from earlier work.

Read-outs that look alike come from different tables or passages of the source.

Chain of D2 receptor (P14416 whole entry): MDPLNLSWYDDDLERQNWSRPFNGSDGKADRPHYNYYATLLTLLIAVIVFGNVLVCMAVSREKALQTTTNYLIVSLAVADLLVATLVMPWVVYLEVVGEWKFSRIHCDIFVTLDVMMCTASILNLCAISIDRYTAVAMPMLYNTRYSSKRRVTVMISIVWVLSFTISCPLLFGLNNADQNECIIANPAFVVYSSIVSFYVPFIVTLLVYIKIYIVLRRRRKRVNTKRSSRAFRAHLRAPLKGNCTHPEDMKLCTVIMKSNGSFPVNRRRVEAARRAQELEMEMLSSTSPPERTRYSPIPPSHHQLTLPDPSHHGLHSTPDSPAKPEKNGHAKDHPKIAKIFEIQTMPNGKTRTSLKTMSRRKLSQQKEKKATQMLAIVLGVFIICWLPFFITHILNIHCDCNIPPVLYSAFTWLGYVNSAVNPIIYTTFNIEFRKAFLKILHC

Regarding `CN(C)CCCC1(c2ccc(F)cc2)OCc2cc(C#N)ccc21` (centres unmarked) [celexa], the “mania on traditional antidepressants” value in data set [1] is listed as “experienced mania”.

In the case of `O=C1CN=C(c2ccccc2Cl)c2cc([N+](=O)[O-])ccc2N1` [clonazepam], the “effect on the anxiolytic and antidepressant effects of Salvia divinorum alone” value in data set [1] (clonazepam oral and/or sublingual, about 1.5 mg b.i.d., along with cannabis and/or intranasal ketamine and inhaled Salvia divinorum) is on record as “appeared to potentiate”. For the same molecule, the “effect on anxiety, tremor or other side effects of Salvia divinorum administration” value in data set [1] (clonazepam oral and/or sublingual, along with cannabis and/or intranasal ketamine and inhaled Salvia divinorum) was “helped to further alleviate any anxiety, tremor or any other side effect”.

`CNC1(c2ccccc2Cl)CCCCC1=O` (centres unmarked) [ketamine]: in data set [1] (co-administered with inhaled Salvia divinorum, cannabis by combustion and inhalation and/or ketamine hydrochloride about 30 to about 75 mg intranasal), the “effect on the anxiolytic and antidepressant effects of Salvia divinorum alone” value is reported as “appeared to potentiate”.

`COC(=O)[C@@H]1C[C@H](OC(C)=O)C(=O)[C@H]2[C@@]1(C)CC[C@H]1C(=O)O[C@H](c3ccoc3)C[C@]21C` [salvinorin A]: the “effect on a battery of 50 other receptors, transporters and ion channels” value in data set [2] was “no significant effect”. Further, the D2 receptor activity entry at D2 receptor is given as “partial agonist”. The “effect on 5HTP2A receptors” value was “no significant effect” at 5HTP2A receptors and “no substantial effect” at 5HTP2A receptors (listed as Salvinorin A). The “activity when administered orally” value in data set [3] (encapsulated, oral) was “inactive”. In data set [3] (sublingual), the “absorption on sublingual administration” value is “inconsistent results or no absorption at all”.

Turning to `CN[C@H]1CC[C@@H](c2ccc(Cl)c(Cl)c2)c2ccccc21` [sertraline], in data set [1], the “mania on traditional antidepressants” value is listed as “experienced mania”.
